The test system of one test is PDE4B. The following applies: in vitro assay; read-out: IC50 PDE4B; cited from earlier work.
The next test relates to ConA-induced hepatitis. The test is described as follows: Preliminary pharmacological evaluation in ConA-induced hepatitis. The class given is in vivo, BALB/c mice. How it is done: ConA was dissolved in sterile saline (2 mg·mL^−1). The studied compounds (GRMS-55, rolipram, and BRL-50481) were dissolved in a mixture of DMSO, PEG 400, and water for injection at a ratio of 25:25:50 (v/v/v). Mice were given an IP injection of the investigated compounds or the corresponding volume of vehicle alone and, thirty minutes later, intravenously (IV) administered with ConA solution. An additional control group received vehicle alone IP instead of the studied compounds followed by IV injection of sterile saline. ConA was given at a dose of 20 mg·kg^−1. Mice were exsanguinated at several time points post-ConA injection. Blood samples were allowed to clot for 0.5 h at room temperature and then centrifuged at 3000× g for 10 min to obtain the serum, which was stored at −20 °C until further analysis.
The influence of PDE inhibitors on the levels of inflammatory mediators and transaminases in ConA-treated mice was investigated in two separate experiments. In the preliminary study, the animals were pretreated IP with GRMS-55 at a dose of 50 mg·kg^−1, the PDE4-selective inhibitor rolipram at a dose of 10 mg·kg^−1, or the PDE7-selective inhibitor BRL-50481 at a dose of 50 mg·kg^−1. Doses of the investigated compounds were chosen based on the results of previous studies. Subsequently, mice were given an IV injection of ConA and sacrificed at 8 h following mitogen dosing. The levels of TNF-α, IL-6, and IFN-γ and the activities of ALT and AST in the mouse serum were measured. This preliminary experiment allowed comparing the activity of the studied PDE inhibitors in this AIH model and helped to select the doses of GRMS-55 for a subsequent pharmacodynamic study. In the final pharmacodynamic experiment, GRMS-55 was administered at two dose levels (50 and 100 mg·kg^−1) followed by ConA administration at a dose of 20 mg·kg^−1. Animals were sacrificed at various time points post-ConA dosing (1, 2, 4, 8 and 24 h). The levels of TNF-α, IL-1β, IL-4, IL-6, IL-10, IL-12, IL-17A, and IFN-γ were measured using a multiplex Luminex assay. In addition, the activities of ALT and AST in the mouse serum were assessed. The concentration–time profiles of the selected biomarkers obtained in this experiment combined with the results of pharmacokinetic analysis allowed the development of a semi-mechanistic PK/PD/disease progression model and the investigation of concentration–effect relationships of GRMS-55.
The serum samples from the preliminary pharmacological study were analyzed using ELISA tests according to the protocols provided by the manufacturers. The TNF-α concentrations were measured using the Mouse TNF-α Quantikine ELISA Kit (R&D Systems, Minneapolis, MN, USA), while the concentrations of IL-6 and IFN-gamma were quantified by ELISA kits manufactured by Cloud-Clone Corp. (Houston, TX, USA). The absorbance of samples was measured on a POLARstar Omega multi-mode microplate reader (BMG LABTECH, Ortenberg, Germany) set at 450 nm wavelength. TNF-α, IL-1β, IL-6, IL-4, IL-10, IL-12, IL-17A, and IFN-γ serum levels in samples from pharmacodynamic experiment were determined by a premixed Magnetic Luminex Assay (R&D Systems, Inc., Minneapolis, MN, USA) according to the manufacturer’s protocol. Serum AST and ALT activities were quantified on a chemistry analyzer BS-800 (Shenzhen Mindray Bio-medical Electronics Co., Ltd., Shenzhen, China).

The subject of the next test is PDE7A. The following applies: in vitro assay; read-out: IC50 PDE7A; cited from earlier work.
The next test deals with TNF-α production. Further details: method as in PMID 31899535. As to conditions: rat lipopolysaccharide-induced endotoxemia, PK/PD model; cited from earlier work.
Test [1] deals with paw edema in collagen-induced arthritis. Also on record: method as in PMID 31899535. The following applies: rats with collagen-induced arthritis, PK/PD arthritis progression model; cited from earlier work.
Setting [2] is: 8 h after ConA 20 mg/kg IV, IP pretreatment: rolipram 10, BRL-50481 50, GRMS-55 50 mg/kg, vs vehicle control.

These results are taken from publication PMC8143339, “PK/PD Modeling of the PDE7 Inhibitor—GRMS-55 in a Mouse Model of Autoimmune Hepatitis” (Pharmaceutics, 2021).

On to `Cc1ccc([N+](=O)[O-])cc1S(=O)(=O)N(C)C` [BRL-50481], for which the IC50 (as a rule, the point on the concentration scale where inhibition reaches its midpoint) in the test with PDE4B is greater than 200 µM. The “effect on activities of transaminases” value in the test with ConA-induced hepatitis (50 mg/kg IP, 8 h after ConA) was “reduced”. In the test with ConA-induced hepatitis (setting [2]), the “effect on serum IFN-γ concentration” value is “decreased”, the “effect on serum IL-6 concentration” value is reported as “no effect” and the “effect on serum TNF-α concentration” value was “decreased”. In the test with PDE7A, the IC50 was 2.1 µM.

With `COc1ccc(C2CNC(=O)C2)cc1OC1CCCC1` (stereo not shown) [Rolipram], in the test with ConA-induced hepatitis (10 mg/kg IP, 8 h after ConA), the “decrease of IFN-γ level compared to control group” value is “approximately 5.0 times”, the “decrease of IL-6 level compared to control group” value was roughly 3.8 times, the “reduction of ALT activity compared to vehicle-treated control group” value is reported as “approximately 18.2 times” and the “reduction of AST activity compared to vehicle-treated control group” value is given as roughly 6.1 times. For the same compound, the “IC50, suppression of TNF-α production” value with TNF-α production is 0.36 µg/mL. For the same compound, the “IC50, decrease of paw edema” value in test [1] is 0.01 µg/mL. Further, in the test with PDE7A, the IC50 is greater than 200 µM.
